Measured values as given in patent US6399629B1, “Efflux pump inhibitors” (priority 1998, dated 2002).

Tested on: Pseudomonas aeruginosa PAM1001
Experiment: checkerboard assay (broth microdilution): levofloxacin MIC in presence of efflux pump inhibitor
Assay type: cell-based
In short: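 Checkerboard broth microdilution in Mueller Hinton Broth against P. aeruginosa PAM1001 (5×10^5 CFU/mL, early-log inoculum), levofloxacin and efflux pump inhibitor (up to 40 μg/mL) diluted along crossing axes. Plates incubated 20 h at 35° C; growth read at 650 nm and visually. Potentiation scored as reduced levofloxacin MIC.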

Row | SMILES | Levofloxacin MIC Against P. aerugiuosa PAM1001 in Presence of Efflux Pump Inhibitor (EPI), Minimum Inhibitory Concentration (EPI Conc. 0 μg/mL) [µg/mL] | Levofloxacin MIC Against P. aerugiuosa PAM1001 in Presence of Efflux Pump Inhibitor (EPI), Minimum Inhibitory Concentration (EPI Conc. 0.625 μg/mL) [µg/mL] | Levofloxacin MIC Against P. aerugiuosa PAM1001 in Presence of Efflux Pump Inhibitor (EPI), Minimum Inhibitory Concentration (EPI Conc. 1.25 μg/mL) [µg/mL] | Levofloxacin MIC Against P. aerugiuosa PAM1001 in Presence of Efflux Pump Inhibitor (EPI), Minimum Inhibitory Concentration (EPI Conc. 2.5 μg/mL) [µg/mL] | Levofloxacin MIC Against P. aerugiuosa PAM1001 in Presence of Efflux Pump Inhibitor (EPI), Minimum Inhibitory Concentration (EPI Conc. 5 μg/ mL) [µg/mL] | Levofloxacin MIC Against P. aerugiuosa PAM1001 in Presence of Efflux Pump Inhibitor (EPI), Minimum Inhibitory Concentration (EPI Conc. 10 μg/mL) [µg/mL] | Levofloxacin MIC Against P. aerugiuosa PAM1001 in Presence of Efflux Pump Inhibitor (EPI), Minimum Inhibitory Concentration (EPI Conc. 20 μg/mL) [µg/mL] | Levofloxacin MIC Against P. aerugiuosa PAM1001 in Presence of Efflux Pump Inhibitor (EPI), Minimum Inhibitory Concentration (EPI Conc. 40 μg/mL) [µg/mL]
1 | Cc1ccc2ncc(C(=O)NC[C@@H](CCc3ccccc3)NC(=O)[C@H]3C[C@H](CN)CN3)cc2c1 [Compound M63, (2R,4R)-4-(Aminomethyl)-N-[(1R)-3-phenyl-1-[(6-methyl-3-quinolylcarboxamido)methyl]propyl]-2-pyrrolidinecaroxamide] | 4 | 4 | 4 | 4 | 2 | 1 | 0.008 | 0.015
2 | Cc1cc2nc(C(O)[C@@H](CCc3ccccc3)NC(=O)[C@@H]3C[C@@H](NC(=O)CN)CN3)oc2cc1C (stereo partly drawn) [Compound M67] | 4 | 4 | 4 | 4 | 4 | 0.5 | 0.03 | –
3 | NC[C@@H]1CN[C@@H](CO[C@@H](CCc2ccccc2)C(=O)Nc2cnc3ccccc3c2)C1 [Compound M69, (2R,4R)-4-(Aminomethyl)-2-[((1S)-3-phenyl-1-(3-quiolylcarbamoyl)propyl)oxymethyl]pyrrolidine] | 4 | 4 | 2 | 2 | 0.125 | 0.125 | 0.125 | 0.06
4 | NC[C@@H]1CN[C@@H](CO[C@H](CCc2ccccc2)C(=O)Nc2cnc3ccccc3c2)C1 [Compound M70, (2R,4R)-4-(Amiomethyl)-2-[((1R)-3-phenyl-1-(3-quiolylcarbamoyl)propyl)oxymethyl]pyrrolidie] | 4 | 4 | 2 | 1 | 1 | 0.125 | 0.125 | 0.06
5 | NC[C@@H]1CN[C@@H](COc2ccc3ccccc3n2)C1 [Compound M71, (2R,4R)-4-(Aminomethyl)-2 (2-quiolyloxymethyl)pyrrolidne] | 4 | 4 | 4 | 4 | 4 | 4 | 2 | 0.5
6 | Cc1ccc2ncc(C(=O)NC[C@H]3C[C@H](CN)CN3)cc2c1 [Compound M72, (2R,4R)-4-(Aminomethyl)-2-(6-methyl-3-quinolylcarboxamidomethyl)pyrrolidine] | 4 | 4 | 4 | 4 | 4 | 4 | 2 | 0.5
7 | NCC(=O)N[C@H]1CN[C@H](c2nc3ccc(Cc4ccccc4)cc3[nH]2)C1 [Compound M73, (2S,4R)-4-(2-Aminoacetamido)-2-(5-benzyl-2-benzmidazolyl)pyrrolidine] | 4 | 4 | 4 | – | – | – | – | –
8 | NCC(=O)N[C@H]1CN[C@H](c2nc3ccccc3n2CCc2ccccc2)C1 [Compound M75, (2S,4R)-4-(2-Aminoacetamido)-2-(1-(2-phenyl)ethyl-2-benzimidazolyl)pyrrolidine] | 4 | 4 | 4 | 4 | 4 | 4 | 1 | 0.03
9 | NCC(=O)N[C@H]1CN[C@H](C(=O)N[C@H](CCc2ccccc2)c2nc3ccccc3o2)C1 [Compound M77, (2S,4R)-4-(2-Aminoacetamido)-N-[(1R)-1-(2-benzoxazolyl)-3-pheylpropyl]-2-pyrrolidinexarboxamide] | 4 | 4 | 4 | 4 | 4 | 4 | 2 | 0.125
